# Data from the supplement of paper PMC10307832.
# Key:
# Experiment in all cases: relative viability (nuclei count vs DMSO), 5 days (fraction); higher = more cells survive
# MK-2206 + Tozasertib = compound: NC1(c2ccc(-c3nc4ccn5c(=O)[nH]nc5c4cc3-c3ccccc3)cc2)CCC1 [MK-2206] + Cc1cc(Nc2cc(N3CCN(C)CC3)nc(Sc3ccc(NC(=O)C4CC4)cc3)n2)n[nH]1 [Tozasertib] (partner 0.1 µM)
# Outline: (§1)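 Lung cancer cell lines were pin-tool dosed in 1536-well plates on the day after seeding, with either a lone drug or a fixed anchor-drug dose plus five library-drug doses (not always all listed) in √10 steps. Nuclei were counted on 4× images after 5 days. Relative viability is the ratio of treated-well to vehicle-well nuclei counts, with each value a median of duplicate plates.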
# Pictilisib + AZD7762 = compound: CS(=O)(=O)N1CCN(Cc2cc3nc(-c4cccc5[nH]ncc45)nc(N4CCOCC4)c3s2)CC1 [Pictilisib] + NC(=O)Nc1cc(-c2cccc(F)c2)sc1C(=O)N[C@H]1CCCNC1 [AZD7762] (partner 0.2 µM)
# Outline: as §1
# MK-2206 + Lapatinib = compound: NC1(c2ccc(-c3nc4ccn5c(=O)[nH]nc5c4cc3-c3ccccc3)cc2)CCC1 [MK-2206] + CS(=O)(=O)CCNCc1ccc(-c2ccc3ncnc(Nc4ccc(OCc5cccc(F)c5)c(Cl)c4)c3c2)o1 [Lapatinib] (partner 2 µM)
# Outline: as §1
# Pictilisib + Phenformin = compound: CS(=O)(=O)N1CCN(Cc2cc3nc(-c4cccc5[nH]ncc45)nc(N4CCOCC4)c3s2)CC1 [Pictilisib] + N=C(N)NC(=N)NCCc1ccccc1 [Phenformin] (partner 250 µM)
# Outline: as §1
# MK-2206 = compound: NC1(c2ccc(-c3nc4ccn5c(=O)[nH]nc5c4cc3-c3ccccc3)cc2)CCC1 [MK-2206]
# Outline: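 Viability is treated-well nuclei as a fraction of vehicle-well nuclei, reported as the median across plates. Before counting, lung cancer cell lines were kept overnight at 37 °C in 1536-well plates, pinned with five √10-spaced library-drug doses on vehicle-anchored plates, and left 5 days without medium change, then fixed, permeabilised and Hoechst-stained in one step, imaged at 4× and counted by MetaXpress. A plate passed only if control CV was below 25% and at least one doubling occurred.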
Cell Line,relative viability (MK-2206 + Tozasertib; first compound 0.01 µM),relative viability (MK-2206 + Tozasertib; first compound 0.03162 µM),relative viability (MK-2206 + Tozasertib; first compound 0.3162 µM),relative viability (MK-2206 + Tozasertib; first compound 1 µM),relative viability (Pictilisib + AZD7762; first compound 0.02 µM),relative viability (Pictilisib + AZD7762; first compound 0.06325 µM),relative viability (Pictilisib + AZD7762; first compound 0.6325 µM),relative viability (Pictilisib + AZD7762; first compound 2 µM),relative viability (MK-2206 + Lapatinib; first compound 0.01 µM),relative viability (MK-2206 + Lapatinib; first compound 0.03162 µM),relative viability (MK-2206 + Lapatinib; first compound 0.3162 µM),relative viability (MK-2206 + Lapatinib; first compound 1 µM),relative viability (Pictilisib + Phenformin; first compound 0.02 µM),relative viability (Pictilisib + Phenformin; first compound 0.06325 µM),relative viability (Pictilisib + Phenformin; first compound 0.6325 µM),relative viability (Pictilisib + Phenformin; first compound 2 µM),relative viability (MK-2206; 0.01 µM),relative viability (MK-2206; 0.03162 µM),relative viability (MK-2206; 0.3162 µM),relative viability (MK-2206; 1 µM)
NCI-H23,0.43,0.359,0.364,0.281,0.203,0.258,0.209,0.155,0.982,0.98,1.16,1.1,0.84,0.82,0.664,0.523,0.944,0.909,0.896,0.783
NCI-H322M,0.455,0.552,0.449,0.455,0.55,0.607,0.495,0.339,0.599,0.634,0.604,0.68,0.861,0.773,0.566,0.418,0.914,1.06,0.981,1.05
NCI-H358,0.0987,0.112,0.097,0.0994,0.542,0.521,0.335,0.267,0.47,0.41,0.394,0.376,0.348,0.38,0.207,0.151,1.01,0.977,0.972,0.871
NCI-H460,0.362,0.691,0.601,0.665,0.72,0.66,0.627,0.183,0.914,1.3,0.914,0.95,0.549,0.534,0.266,0.0575,0.997,1.03,1.02,0.921
NCI-H596,0.912,1.01,0.829,0.765,1.01,1.14,0.564,0.44,1.12,1.11,0.912,0.684,0.697,0.697,0.375,0.305,1.07,0.929,0.948,0.669
NCI-H647,0.316,0.377,0.289,0.233,0.474,0.577,0.283,0.201,1.01,1.15,1.06,0.521,0.667,0.698,0.291,0.227,0.951,1.11,0.921,0.744
NCI-H650,0.703,0.76,0.751,0.772,0.806,0.95,0.998,0.655,0.985,1.07,0.874,0.721,0.468,0.457,0.357,0.394,0.986,0.854,0.97,0.764
NCI-H727,0.578,0.659,0.559,0.626,0.636,0.545,0.607,0.31,0.873,1.05,0.856,0.513,0.564,0.529,0.554,0.38,0.976,1.01,0.901,0.894
NCI-H838,0.286,0.259,0.26,0.253,0.906,0.747,0.928,0.809,1.04,1.18,1.01,0.675,0.541,0.628,0.329,0.224,0.98,1.01,0.918,0.92
NCI-H1355,0.555,0.587,0.533,0.47,0.678,0.689,0.546,0.362,0.97,1.04,0.851,0.743,0.493,0.467,0.393,0.248,0.977,0.997,0.9,0.788
NCI-H1395,0.825,0.693,0.683,0.631,0.44,0.416,0.375,0.338,1.01,1.3,0.774,0.759,0.453,0.425,0.386,0.399,1,0.91,0.701,0.793
NCI-H1437,0.408,0.425,0.396,0.349,1.13,1.07,1.09,0.903,0.778,0.783,0.815,0.475,0.315,0.321,0.256,0.297,0.993,0.963,1.07,0.925
NCI-H1651,0.623,0.667,0.665,0.59,0.445,0.423,0.444,0.263,0.878,0.743,0.99,0.606,0.331,0.36,0.268,0.261,0.949,0.968,1.03,0.937
NCI-H1666,0.636,0.631,0.647,0.594,0.814,0.763,0.804,0.532,0.633,0.577,0.354,0.386,0.576,0.615,0.522,0.462,0.973,0.9,1.04,0.846
NCI-H1734,0.28,0.244,0.261,0.252,0.559,0.537,0.357,0.192,0.758,1.05,0.789,0.869,0.427,0.362,0.271,0.197,1.01,0.988,0.764,0.795
NCI-H1755,0.647,0.549,0.582,0.513,0.452,0.387,0.354,0.298,1.02,1.05,0.965,0.962,0.654,0.594,0.401,0.357,0.955,0.989,0.907,0.918
NCI-H1793,0.349,0.345,0.302,0.284,0.449,0.404,0.226,0.142,0.616,0.742,0.745,0.617,0.387,0.38,0.221,0.203,0.979,1.04,0.887,0.743
NCI-H1915,0.486,0.431,0.432,0.394,0.681,0.716,0.579,0.525,0.954,0.984,0.978,1.02,0.392,0.367,0.365,0.361,1,1.06,0.967,0.95
NCI-H1944,0.249,0.244,0.251,0.24,0.555,0.477,0.319,0.236,0.829,0.849,0.823,0.904,0.206,0.184,0.137,0.141,1.03,1.01,0.965,0.987
NCI-H1975,0.798,0.66,0.573,0.535,0.816,0.62,0.466,0.225,0.837,0.996,0.781,0.534,0.431,0.387,0.25,0.177,1.06,0.931,0.913,0.728
NCI-H1993,0.611,0.542,0.541,0.525,0.79,0.722,0.459,0.442,0.869,0.83,0.749,0.758,0.527,0.504,0.626,0.573,0.907,0.987,0.737,0.618
NCI-H2085,0.781,0.793,0.786,0.716,0.963,1.06,0.354,0.287,0.773,0.81,0.605,0.467,0.725,0.688,0.387,0.291,0.965,1.01,0.957,0.969
NCI-H2087,0.26,0.242,0.223,0.259,1.39,1.29,1.29,0.952,1.03,1.41,1.07,0.805,0.483,0.439,0.468,0.28,0.938,1.25,0.881,0.746
NCI-H2126,0.814,0.897,0.822,0.775,1.02,1.01,0.956,0.716,0.803,0.739,0.75,0.737,0.49,0.501,0.38,0.31,1.04,1.03,0.913,0.92
NCI-H2170,0.789,0.717,0.659,0.763,0.879,0.917,0.645,0.422,0.312,0.276,0.263,0.258,0.394,0.444,0.424,0.365,0.93,1.03,0.923,0.877
NCI-H2347,0.521,0.631,0.561,0.496,0.796,0.806,0.546,0.396,0.845,1.06,0.887,0.953,0.451,0.461,0.325,0.207,0.952,0.997,0.997,0.945
NCI-H2405,0.818,0.799,0.662,0.635,0.784,0.629,0.427,0.264,1.07,1.19,0.809,0.859,0.4,0.386,0.364,0.23,1.02,1.03,0.968,0.839
NCI-H3122,0.366,0.39,0.469,0.169,0.961,1.07,0.871,0.348,1.01,1.07,1.06,1.1,0.402,0.4,0.394,0.284,1.02,1.03,1.05,0.984
PC-3 [JPC-3],0.874,0.83,0.873,0.899,0.812,0.844,0.491,0.324,0.469,0.457,0.437,0.441,0.493,0.539,0.487,0.405,1.02,1.04,1.11,1.07
PC-14,0.593,0.653,0.587,0.642,0.399,0.366,0.246,0.155,0.297,0.316,0.287,0.221,0.858,0.719,0.621,0.386,0.937,1.02,0.991,1
